The nature of this data set: Intramolecular Nicholas reaction: C-O or C-N bond formation between OH/NHR nucleophile and Co2(CO)6-stabilised propargyl cation (from propargylic OMe), BF3·Et2O 1.3-8 equiv, 0 °C to rt. The conditions noted are these: the molecule shown is the open-chain precursor, 10-membered ring, DCM, 1.0 mM, 25.0 °C.

As to `COCC#Cc1sc2ccccc2c1C#CCC(O)CC(=O)OC` (stereo not shown) [4 -> 5], under “1.0 h”, the ring closure, isolated yield was 51%.

Turning to `COCC#Cc1sc2ccccc2c1C#CCCNS(=O)(=O)c1ccccc1[N+](=O)[O-]` [12a -> 13a], for the setting “1.0 h”, the ring closure, isolated yield was 46%.

`COCC#Cc1sc2ccccc2c1C#CCCNS(=O)(=O)c1ccc(N)cc1` [12b (free NH2, no cyclization)]: the ring closure, isolated yield was found to be 0%.

As to `C#CCCCC(=O)Nc1ccc(S(=O)(=O)NCCC#Cc2c(C#CCOC)sc3ccccc23)cc1` [12c -> 13b], the ring closure, isolated yield (1.0 h) was 63%.

With `COCC#Cc1sc2ccccc2c1C#CCCNCc1ccccc1` [17a -> 18 (BF3·Et2O)], the ring closure, isolated yield (20.0 h) worked out at 4%.

For `COCC#Cc1sc2ccccc2c1C#CCCNC(=O)c1ccccc1` [17b (no macrocycle; pyrroline 19 formed)], the ring closure, isolated yield (2.0 h) was determined as 0%.

As to `COCC#Cc1sc2ccccc2c1C#CCCNS(=O)(=O)c1ccc(C)cc1` [NHTs Co-complex -> 13c (ref 42)], the ring closure, isolated yield is 76%.
